Laboratory results taken from US20120315290A1, “INHIBITORS OF LL-37 MEDIATED IMMUNE REACTIVITY TO SELF NUCLEIC ACIDS” (BOARD OF REGENTS, THE UNIVERSITY OF TEXAS SYSTEM, priority 2006, published 2012).

Test system: murine pDC
Test: Murine pDC stimulation with peptide/DNA complexes (IFN-a ELISA)
Type: cell-based, mouse
Conditions: complexed with DNA
Protocol: Murine pDC were generated from Flt3 ligand supplemented BM cultures and isolated by sorting of CD11c+CD11b-B220+ cells, as previously described. 50,000 murine pDC in […] of complete medium were stimulated with human LL-37 ([…]), mouse CRAMP ([…]), DNA alone, or DNA plus LL-37 or DNA plus CRAMP. After overnight culture supernatants were collected and tested for IFN-a by ELISA.
Murine pDC respond to LL-37-DNA complexes. To determine whether mouse pDCs can respond to LL-37/DNA complexes, we purified mouse pDCs from Flt3L-supplemented BM cultures according to their CD11c+CD11b-B220+ phenotype, and stimulated them with DNA complexed with LL-37 or CRAMP (the murine LL-37 homologue). […] However, compared to LL-37, approximately 3 times more CRAMP was required to elicit the same amount of type I IFNs (FIG. 27).

CRAMP
Amount required to elicit the same amount of type I IFNs, compared to LL-37: approximately 3 times
